Test results from ChEMBL document CHEMBL4049411, “Rational Design, Synthesis, and Biological Evaluation of Heterocyclic Quinolones Targeting the Respiratory Chain of Mycobacterium tuberculosis” (J Med Chem, 2017).

Key:
[1] = test system: Rattus norvegicus; experiment: Half life in Wistar rat assessed as 2-(4-(3,3-Difluoropyrrolidin-1-yl)phenyl)-5,7-difluoro-3-methylquinolin-4(1H)-one at 0.5 mg/kg, iv after 24 hrs by LC-MS/MS analysis; assay type: ADME, organism-based; conditions: in vivo
[2] = test system: Rattus norvegicus; experiment: Clearance in Wistar rat assessed as 2-(4-(3,3-Difluoropyrrolidin-1-yl)phenyl)-5,7-difluoro-3-methylquinolin-4(1H)-one at 0.5 mg/kg, iv after 24 hrs by LC-MS/MS analysis; assay type: ADME, organism-based; conditions: in vivo
[3] = test system: Rattus norvegicus; experiment: Volume of distribution in steady state in Wistar rat assessed as 2-(4-(3,3-Difluoropyrrolidin-1-yl)phenyl)-5,7-difluoro-3-methylquinolin-4(1H)-one at 0.5 mg/kg, iv after 24 hrs by LC-MS/MS analysis; assay type: ADME, organism-based; conditions: in vivo
[4] = Half life in Wistar rat at 10 mg/kg administered via oral gavage after 24 hrs by LC-MS/MS analysis; assay type: ADME, organism-based; conditions: in vivo
[5] = Cmax in Wistar rat at 10 mg/kg administered via oral gavage after 24 hrs by LC-MS/MS analysis; assay type: ADME, organism-based; design: dose 10 mg/kg, route oral; conditions: in vivo
[6] = test system: Rattus norvegicus; experiment: AUC in Wistar rat assessed as 2-(4-(3,3-Difluoropyrrolidin-1-yl)phenyl)-5,7-difluoro-3-methylquinolin-4(1H)-one at 0.5 mg/kg, iv after 24 hrs by LC-MS/MS analysis; assay type: ADME, organism-based; design: time < 24 hr, dose 0.5 mg/kg, route intravenous; conditions: in vivo
[7] = test system: Rattus norvegicus; experiment: Half life in Wistar rat assessed as 2-(4-(3,3-Difluoropyrrolidin-1-yl)phenyl)-5,7-difluoro-3-methylquinolin-4(1H)-one at 10 mg/kg administered via oral gavage after 24 hrs by LC-MS/MS analysis; assay type: ADME, organism-based; conditions: in vivo
[8] = test system: Rattus norvegicus; experiment: Cmax in Wistar rat assessed as 2-(4-(3,3-Difluoropyrrolidin-1-yl)phenyl)-5,7-difluoro-3-methylquinolin-4(1H)-one at 10 mg/kg administered via oral gavage after 24 hrs by LC-MS/MS analysis; assay type: ADME, organism-based; design: dose 10 mg/kg, route oral; conditions: in vivo
[9] = test system: Rattus norvegicus; experiment: AUC in Wistar rat assessed as 2-(4-(3,3-Difluoropyrrolidin-1-yl)phenyl)-5,7-difluoro-3-methylquinolin-4(1H)-one at 10 mg/kg administered via oral gavage after 24 hrs by LC-MS/MS analysis; assay type: ADME, organism-based; design: dose 10 mg/kg, time < 24 hr, route oral; conditions: in vivo
[10] = test system: Rattus norvegicus; experiment: Oral bioavailability in Wistar rat assessed as 2-(4-(3,3-Difluoropyrrolidin-1-yl)phenyl)-5,7-difluoro-3-methylquinolin-4(1H)-one at 10 mg/kg administered via gavage after 24 hrs by LC-MS/MS analysis; assay type: ADME, organism-based; conditions: in vivo
[11] = test system: Rattus norvegicus; experiment: Half life in Wistar rat assessed as 2-(4-(3,3-Difluoropyrrolidin-1-yl)phenyl)-5,7-difluoro-3-methylquinolin-4(1H)-one at 50 mg/kg administered via oral gavage after 24 hrs by LC-MS/MS analysis; assay type: ADME, organism-based; conditions: in vivo
[12] = test system: Rattus norvegicus; experiment: Cmax in Wistar rat assessed as 2-(4-(3,3-Difluoropyrrolidin-1-yl)phenyl)-5,7-difluoro-3-methylquinolin-4(1H)-one at 50 mg/kg administered via oral gavage after 24 hrs by LC-MS/MS analysis; assay type: ADME, organism-based; design: dose 50 mg/kg, route oral; conditions: in vivo
[13] = test system: Rattus norvegicus; experiment: AUC in Wistar rat assessed as 2-(4-(3,3-Difluoropyrrolidin-1-yl)phenyl)-5,7-difluoro-3-methylquinolin-4(1H)-one at 50 mg/kg administered via oral gavage after 24 hrs by LC-MS/MS analysis; assay type: ADME, organism-based; design: dose 50 mg/kg, time < 24 hr, route oral; conditions: in vivo
[14] = test system: Rattus norvegicus; experiment: Oral bioavailability in Wistar rat assessed as 2-(4-(3,3-Difluoropyrrolidin-1-yl)phenyl)-5,7-difluoro-3-methylquinolin-4(1H)-one at 50 mg/kg administered via gavage after 24 hrs by LC-MS/MS analysis; assay type: ADME, organism-based; conditions: in vivo
[15] = AUC in Wistar rat at 10 mg/kg administered via oral gavage after 24 hrs by LC-MS/MS analysis; assay type: ADME, organism-based; design: dose 10 mg/kg, time < 24 hr, route oral; conditions: in vivo
[16] = Oral bioavailability in Wistar rat at 10 mg/kg administered via gavage after 24 hrs by LC-MS/MS analysis; assay type: ADME, organism-based; conditions: in vivo
[17] = Half life in Wistar rat at 50 mg/kg administered via oral gavage after 24 hrs by LC-MS/MS analysis; assay type: ADME, organism-based; conditions: in vivo
[18] = Cmax in Wistar rat at 50 mg/kg administered via oral gavage after 24 hrs by LC-MS/MS analysis; assay type: ADME, organism-based; design: dose 50 mg/kg, route oral; conditions: in vivo
[19] = AUC in Wistar rat at 50 mg/kg administered via oral gavage after 24 hrs by LC-MS/MS analysis; assay type: ADME, organism-based; design: time < 24 hr, dose 50 mg/kg, route oral; conditions: in vivo
[20] = Oral bioavailability in Wistar rat at 50 mg/kg administered via gavage after 24 hrs by LC-MS/MS analysis; assay type: ADME, organism-based; conditions: in vivo
[21] = Drug metabolism in Sprague-Dawley rat assessed as M1 metabolite formation in bile at 50 mg/kg, po via gavage up to 9 hrs by HPLC analysis; assay type: ADME, organism-based; conditions: in vivo
[22] = Drug metabolism in Sprague-Dawley rat assessed as M2 metabolite formation in bile at 50 mg/kg, po via gavage up to 9 hrs by HPLC analysis; assay type: ADME, organism-based; conditions: in vivo
[23] = Drug metabolism in Sprague-Dawley rat assessed as M3 metabolite formation in bile at 50 mg/kg, po via gavage up to 9 hrs by HPLC analysis; assay type: ADME, organism-based; conditions: in vivo
[24] = Drug metabolism in Sprague-Dawley rat assessed as M3 metabolite formation in urine at 50 mg/kg, po via gavage up to 9 hrs by HPLC analysis; assay type: ADME, organism-based; conditions: in vivo
[25] = Drug metabolism in Sprague-Dawley rat assessed as 2-(4-(3,3-difluoro-4-hydroxypyrrolidin-1-yl)phenyl)-5,7-difluoro-3-methylquinolin-4(1H)-one metabolite formation in urine at 50 mg/kg, po via gavage up to 9 hrs by HPLC analysis; assay type: ADME, organism-based; conditions: in vivo
[26] = Drug metabolism in Sprague-Dawley rat assessed as 2-(4-(3,3-difluoro-4-hydroxypyrrolidin-1-yl)phenyl)-5,7-difluoro-3-methylquinolin-4(1H)-one metabolite formation in bile at 50 mg/kg, po via gavage up to 9 hrs by HPLC analysis; assay type: ADME, organism-based; conditions: in vivo
[27] = Prodrug activation in Sprague-Dawley rat assessed as 2-(4-(3,3-difluoropyrrolidin-1-yl)phenyl)-5,7-difluoro-3-methylquinolin-4(1H)-one formation in urine at 50 mg/kg, po via gavage up to 9 hrs by HPLC analysis; assay type: organism-based; conditions: in vivo
[28] = Prodrug activation in Sprague-Dawley rat assessed as 2-(4-(3,3-difluoropyrrolidin-1-yl)phenyl)-5,7-difluoro-3-methylquinolin-4(1H)-one formation in bile at 50 mg/kg, po via gavage up to 9 hrs by HPLC analysis; assay type: organism-based; conditions: in vivo
[29] = Retention time of compound by HPLC anlaysis

With `CC(=O)Oc1c(C)c(-c2ccc(N3CCC(F)(F)C3)cc2)nc2cc(F)cc(F)c12` the t1/2 [1] was 1.48 h, the CL [2] was 8.73 mL/min/kg and the Vdss [3] was 0.291 L/kg. The half-life [4] was 3.9 h, the Cmax [5] was 1700 ng/mL and the AUC [6] was 964 ng·h/mL. For the same compound, the t1/2 [7] was 3.8 h, the Cmax [8] was 610 ng/mL and the AUC [9] was 5400 ng·h/mL. For the same compound, the F [10] was 28%, the t1/2 [11] was 4.2 h and the Cmax [12] was 1400 ng/mL. For the same compound, the AUC [13] was 16500 ng·h/mL, the F [14] was 17.1% and the AUC at 24 h [15] was 12300 ng·h/mL. The bioavailability [16] was 63.8%, the half-life [17] was 2.3 h and the Cmax [18] was 4000 ng/mL. For the same compound, the AUC at 24 h [19] was 29600 ng·h/mL, the bioavailability [20] was 30.7% and the Drug metabolism [21] was “Metabolite_Detected”. The Drug metabolism [22] was “Metabolite_Detected”, the Drug metabolism [23] was “Metabolite_Detected” and the Drug metabolism [24] was “Metabolite_Detected”. For the same compound, the Drug metabolism [25] was “Metabolite_Detected”, the Drug metabolism [26] was “Metabolite_Detected” and the Drug metabolism [27] was “Metabolite_Detected”. For the same compound, the Drug metabolism [28] was “Metabolite_Detected” and the Retention time [29] was 14.3 min.
